Data: a melting point compilation (Tetko et al.; mined from patent text by program, amines drawn as free bases though some values may be those of a salt)

Structure (SMILES)	melting point
Cc1noc(NS(=O)(=O)c2ccc(-c3cccs3)s2)c1Br	210 °C
Cc1ccc2ncc(C)cc2c1	50 °C
CN1CCN(c2ccc(C3CCC4(CCC4c4ccccc4)C(=O)N3c3ccccc3)cc2)CC1 (stereo not drawn)	166 to 168 °C
CC1COc2cnc3cc(Cl)ccc3c2N1 (stereo not drawn)	215 to 217 °C
O=C(OCCCc1ccc(OCc2ccc(Cl)cc2)cc1)c1cccnc1	109 to 110 °C
O=C1CCCC2=C1C(c1ccc(Cl)c(C(F)(F)F)c1)C1=C(CCS1)N2 (single isomer, unassigned; (+))	> 250 °C
NC(=O)[C@@H]1CCCc2cc(Sc3ccccc3)cc(F)c21	167 to 168 °C
CCOC(=O)CN1C(=O)C(NC(=O)Nc2ccc(Cl)cc2)N=C(c2ccccc2)c2ccccc21 (stereo not drawn)	228 to 229 °C
Cc1ccc(NC(=O)N2CCc3cc(S(=O)(=O)N4CC(c5ccccc5)NC4=O)ccc32)cc1 (stereo not drawn)	223 to 224 °C
[N-]=[N+]=NC1=CN(CC(F)(F)F)c2ccccc2C(c2ccccc2)=N1	159 to 160 °C
O=C(CC1CCCCC1)c1ccccc1	61 to 67 °C
Nc1c(-c2ccc(C(F)(F)F)cc2)nc2ccc(F)cc2c1C(=O)O	260 to 262 °C
Cc1cc(-c2ccc(C(F)(F)F)c(C)c2)nc(-c2cccc(-c3cccc(S(N)(=O)=O)c3)c2)n1	222 °C
Clc1ccc(OC2CCC3(CCNCC3)CC2)cc1	140 to 142 °C
CNC(=O)ON=C1SCC(=O)N(C)C1C (stereo not drawn)	161 to 163 °C
O=C1c2c(F)c(F)c(F)c(F)c2C(=O)N1c1ccccc1	210 to 211 °C
COC(=O)CCc1ccc(OCc2cccc(-c3cccc(CO)c3)c2)cc1	185 to 188 °C
CN(Cc1ccccc1)C1(C#N)CCN(Cc2ccccc2)CC1	67 to 68 °C
CC(=O)C1CCC2C3CCC4CC(O)C(N5CC(C)OC(C)C5)CC4(C)C3C(=O)CC12C (stereo not drawn)	172 to 174 °C
Nc1c(Br)cc(S(=O)(=O)Cl)cc1Br	153 to 155 °C
OCCC1c2ccccc2C(O)=NN1c1cccc(C(F)(F)F)c1 (stereo not drawn)	183 to 184 °C
CN1Cc2cncn2-c2ccccc2C1=O	212 to 213 °C
CC(c1ccnc(C#N)c1)C(O)(Cn1cncn1)c1ccc(F)cc1F (stereo not drawn)	188 to 189 °C
O=C1CC([N+](=O)[O-])([N+](=O)[O-])CO1	100 to 102 °C
CN(C)c1ccc(/C=C/c2ccc(F)cc2F)cc1	139 to 140 °C
O=C(CC(C(=O)c1ccccc1)C(O)=S)c1ccccc1 (stereo not drawn)	142 to 144 °C

Structure (SMILES)	melting point
CCCCc1cnc(-c2cnc(-c3ccc(F)cc3)nc2)nc1	196 °C
Nc1ccc(OCc2nnco2)cc1	56 to 57 °C
Nc1ncnc2sc(Cc3ccccc3)c(-c3ccc([N+](=O)[O-])cc3)c12	231 to 233 °C
Cc1nn(-c2ccccn2)c2[nH]c3ccc(C(=O)O)cc3c(=O)c12	> 300 °C
N#Cc1ccc(NC2CCN(Cc3ccc(C(F)(F)F)cc3)CC2)nn1	243 °C
S=c1[nH]nnn1CCN1CCOCC1	226 to 228 °C
Cc1ccc(-c2ccc(C(=O)Nc3ccc4nc(CN5C(C)(C)CCCC5(C)C)ccc4c3)cc2)cc1	242 to 243 °C
O=C(O)c1ccc(S(F)(F)(F)(F)F)cc1	188 to 190 °C
Nc1c([N+](=O)[O-])ccc(Sc2ccccc2)c1Cl	144 to 146 °C
ON=C1c2ccccc2CSc2ccccc21	241 to 243 °C
c1ccc(-c2c[nH]c([C@@H](Cc3c[nH]c4ccccc34)Nc3ncccn3)n2)cc1	138 to 140 °C
CC(c1cccc(C2(c3ccccc3)OCCO2)c1)c1nc(N)no1 (stereo not drawn)	112 to 114 °C
CN(Cc1cc2c3c(c1)c(=O)c(C(=O)NCc1ccc(F)cc1)cn3CC(=O)N2C)C[C@@H](O)c1nccs1	156 to 158 °C
CC(C#Cc1ccc2c(c1)CCN(Cc1ccc(-c3ccc(F)cc3)cn1)C2=O)N(O)C(N)=O (stereo not drawn)	118 to 120 °C
O=C1c2ccccc2C(=O)N1CC(=O)N1c2ccccc2N(Cc2cccnc2)C(=O)[C@H]2CCC[C@H]21 (relative stereo)	220 to 223 °C
COc1cccc2c1oc1c(N)n(C)nc12	186 to 188 °C
CC(=O)NCc1cc(Br)cc2[nH]c(=O)c(=O)[nH]c12	> 300 °C
Cc1cc(F)cc(-c2ccc3c(c2)C2(C=N3)CCCCC2)c1	180 to 182 °C
O=C(O)c1ccccc1-c1ccc(Cc2nc(-c3ccccc3)nc3ccccc23)cc1	210 °C
CC(=O)NC[C@H]1CN(c2ccc(C(=O)c3cnc4c(Cl)cc(Cl)cn34)cc2)C(=O)O1	228 to 229 °C
O=C1NC(=O)C2CCCCC12 (stereo not drawn)	132 to 136 °C
NCc1cccc(Nc2n[nH]c3ncnc(Nc4cccc(Cl)c4)c23)c1	212 to 214 °C
Cc1cccc2c1C=Cc1ccccc1C2(C)NO (stereo not drawn)	127 to 130 °C
Cn1ncc(C23CCCN(CC2)C3)n1 (stereo not drawn)	65 to 70 °C
COc1ccc(-c2n[nH]c3c2sc2ccccc23)cc1	185 to 187 °C
Cc1cc2c(N)c(C(=O)c3cc(F)ccc3F)sc2nc1C	188 °C

More lines, now with the values ahead:

melting point	Structure (SMILES)
123 to 125 °C	CCOP(=O)(OCC)c1c(-c2c(OC)ccc3ccccc23)cc2c(c1-c1ccccc1)COC2
144 to 145 °C	Cc1oc(-c2ccccc2)nc1CCOc1ccc(CCl)c2sccc12
81 to 83 °C	CCOC(=O)c1c(C(F)(F)F)nc(C(F)(F)Cl)c(C(=O)O)c1OCC
156 to 157 °C	CCC(=NOC)c1cc(I)c(O)c(CN)c1
165 to 168 °C	CCCOc1ccc(-c2c(C)c(=O)cc(-c3ccccc3)n2-c2ccccc2)cc1
76 to 77 °C	CC(C)Cc1ccc(-c2ccccc2C(C)C(=O)O)cc1 (stereo not drawn)
97 °C	CCOC(=O)c1cc([N+](=O)[O-])ccc1O
122 °C	CCOC(=O)Nc1ccc(OCc2ccc(Cl)cc2)cc1[N+](=O)[O-]
267 to 268 °C	COc1cc(OC)cc(C(=O)CC(=O)c2ccc(O)cc2O)c1
101 to 110 °C	CCOC(=O)c1cc(C(C)=O)c(=O)[nH]c1C(=O)OCC
113 to 115 °C	CCCCCCCNC(=O)Nc1ccc(NC(C)=O)cc1C(=O)NC1CCN(C(c2ccccc2)c2ccccc2)CC1
69 to 70 °C	C#CCN(C)c1nc(CO)cs1
60 to 63 °C	CCOC(=O)[C@H]1O[C@@H]1C(=O)N[C@@H](COCC(C)C)CC(C)C
139 to 140 °C	CC(C)CCCOc1c(-c2ccc(S(C)(=O)=O)cc2)cnn(-c2cccc(Cl)c2)c1=O
222 to 224 °C	COc1ccc(-n2c(=O)cc(C(F)(F)F)n(C)c2=O)c2c1C(=O)C(C)(C)O2
117 to 121 °C	COc1ccccc1Oc1c(NS(=O)(=O)c2ccc(C(C)(C)C)cc2)nc(SC)nc1OCCOc1ncc(Br)cn1
146 to 147 °C	CC(=O)OC(CCl)c1cccnc1S(N)(=O)=O (stereo not drawn)
191 to 193 °C	CCOC(=O)Nc1ccc2nc(OCC)oc(=O)c2c1
190 °C	CC(C)(C)OC(=O)CN1CCOc2ccc([N+](=O)[O-])cc2C1=O
214 to 215 °C	CC(=O)Nc1ccc(C(=O)O)cc1NC(=O)CO
138 to 140 °C	CCOC(=O)CCCOc1c(Br)cc(Br)c(C(N)=O)c1Br
57 to 61 °C	CC1(C)C(=O)C(C(=O)Cc2ccc(Cl)cc2)C(=O)C(C)(C)C1=O
70 to 72 °C	O=C1NC(=O)C(c2ccc(OCCC3Oc4ccccc4N(Cc4cccc(Cl)c4)C3=O)cc2)S1 (stereo not drawn)
137 °C	CCCCCCCCCCCCCCCCC(=O)Nc1ccc(O)cc1
74 to 75 °C	CCOC(=O)c1cc2cc(OCOC)ccc2s1
59 to 60 °C	CCCCOC(=O)Nc1cccc(C(C)=O)c1

melting point	Structure (SMILES)
220 to 223 °C	Cn1nc(C(=O)O)c(=O)n(C)c1=O
126 to 127 °C	CNC(=O)OC1Oc2ccc(OS(C)(=O)=O)cc2C1(C)C (stereo not drawn)
174 to 178 °C	Cc1cccc(Nc2nc(N)ncc2S(=O)(=O)NC(C)(C)C)c1
148 to 150 °C	CC(C)CC(CP(=O)(O)CNC(=O)c1ccccc1)C(=O)N(c1ccc(-c2ccccc2)cc1)[C@@H](C)C(=O)O (stereo partly drawn)
103 to 104 °C	C=CCNC(=O)ON=C1SCC(=O)N1CC
184 to 186 °C	CC[C@H](C)COc1ccc(-n2cc(C(=O)O)cn2)cc1C#N
196 to 199 °C	O=C1CC(C(=O)NC(Cc2c[nH]cn2)C(=O)OCc2ccccc2)N1 (stereo not drawn)
83 to 85 °C	O=C(CNC(=O)c1ccc(/C=C/C(c2cc(Cl)c(Cl)c(Cl)c2)C(F)(F)F)cc1Cl)NCC(F)(F)F (stereo not drawn)
200 to 201 °C	CCCc1nc2c(N)nc(C)c(C)c2n1CCCCNC(C)=O
122 to 124 °C	CC(=O)Nc1ccc(-n2nc(C(=O)NC(C)(C)C)c3c2C2CCC3C2)cc1 (stereo not drawn)
77 to 78 °C	CCCc1c(OCC2Cc3cc(CC(=O)OC)ccc3O2)ccc(C(C)=O)c1O (stereo not drawn)
219 to 221 °C	Cc1cc(-c2nnc3cc(C(C)(C)C)c(OCc4cn(C)nn4)nn23)no1
68 to 72 °C	CC(C)CCC(O)C(CC1CCCCC1)NC(=O)C(Cc1c[nH]cn1)N(C)C(=O)C(Cc1ccccc1)OC(=O)N(C)CCN(C)C(=O)C(C)C (stereo not drawn)
148 to 150 °C	CC(C)(C)C1=CC(=CC(=O)O)C=C(C(C)(C)C)C1=O
151 to 153 °C	CCCNCc1ccc(S(=O)(=O)c2ccc(S(N)(=O)=O)s2)cc1
125 to 126 °C	Cc1c(SCCCSCCO)ccnc1CNc1cnc2ccccc2c1
203 to 204 °C	Cc1cc(C)nc(NC(=S)NS(=O)(=O)c2ccccc2-c2ccccc2)n1
71.8 °C	CCOC(=O)c1cc(C)nc2c(O)cccc12
84 to 85 °C	CCOCC(N=O)C(C)(C)Cl (stereo not drawn)
193 °C	CCN(CC)CCC(=O)Nc1ccc2c(c1)C(=O)c1cc(NC(=O)CCN(CC)CC)ccc1C2=O
161 to 164 °C	CS(=O)(=O)c1ccc(-c2cnn(CC(F)(F)F)c(=O)c2Oc2ccc(F)cc2)cc1
96 °C	CCOC(=O)C=CC1C(C(=O)O)C1(C)C (stereo not drawn)
141 to 143 °C	O=C1CCCc2nc3cc(Cl)ccc3c(NCc3ccccc3)c21
109 to 111 °C	CCCCC1CCC2NC(=O)CC2C1 (stereo not drawn)
235 to 237 °C	NCc1ccc(C(=O)O)cc1[N+](=O)[O-]
